Assay results published in ChEMBL document CHEMBL5505993, “Identification of a ferritinophagy inducer via sinomenine modification for the treatment of colorectal cancer” (Eur J Med Chem, 2024).
Activity calls are given as the source filed them.

What was measured:
HT-29 = test: Cytotoxicity against human HT-29 cells assessed as inhibition of cell growth incubated for 48 hrs by CCK-8 assay; format: functional, cell-based; details: HT-29, 48 h
[1] = Cytotoxicity against human NCM460 cells assessed as inhibition of cell growth incubated for 48 hrs by CCK-8 assay; format: toxicity, cell-based
HCT-116 [2] = test: Induction of ROS production in human HCT-116 cells incubated for 12 hrs by DCFH-DA probe based flow cytometry; format: functional, cell-based
HCT-116 [3] = test: Induction of […] ROS production in human HCT-116 cells incubated for 12 hrs by DCFH-DA probe based flow cytometry; format: functional, cell-based
HCT-116 [4] = test: Cytotoxicity against human HCT-116 cells assessed as inhibition of cell growth incubated for 12 hrs by CCK-8 assay; format: functional, cell-based; details: HCT-116, 12 h
HCT-116 [5] = test: Cytotoxicity against human HCT-116 cells assessed as inhibition of cell growth incubated for 12 to 48 hrs by CCK-8 assay; format: functional, cell-based; details: time 12-48 hrs
HCT-116 [6] = test: Antiproliferative activity against human HCT-116 cells assessed as reduction in number of EdU-positive cell at 5 to 20 uM incubated for 9 hrs by Edu staining based analysis; format: functional; details: dose 5-20 µM
HCT-116 [7] = test: Induction of ferroptosis in human HCT-116 cells assessed as increase in intracellular lipid ROS accumulation at 5 to 20 uM incubated for 12 hrs by C11 BODIPY probe based flow cytometry; format: functional, cell-based; details: dose 5-20 µM
HCT-116 [8] = test: Induction of ferroptosis in human HCT-116 cells assessed as increase in intracellular lipid ROS accumulation at 20 uM incubated for 12 hrs in presence of ferroptosis inhibitor, deferoxamine mesylate by C11 BODIPY probe based flow cytometry; format: functional, cell-based
HCT-116 [9] = test: Induction of ferroptosis in human HCT-116 cells assessed as increase in intracellular lipid ROS accumulation at 20 uM incubated for 12 hrs in presence of ferroptosis inhibitor, Ferrostatin-1 by C11 BODIPY probe based flow cytometry; format: functional, cell-based
HCT-116 [10] = test: Induction of ferroptosis in human HCT-116 cells assessed as increase in 4-HNE level at 20 uM by ELISA; format: functional, cell-based
HCT-116 [11] = test: Induction of ferroptosis in human HCT-116 cells assessed as effect on ACSL4 protein expression at 5 to 20 uM incubated for 12 hrs by Western blotting analysis; format: functional, cell-based; details: dose 5-20 µM
HCT-116 [12] = test: Induction of ferroptosis in human HCT-116 cells assessed as increase in intracellular ferrous ion level at 20 uM incubated for 12 hrs in presence of ferroptosis inhibitor, deferoxamine mesylate by ferroOrange probe based flow cytometric analysis; format: functional, cell-based
HCT-116 [13] = test: Induction of ferroptosis in human HCT-116 cells assessed as increase in ferrous ion level in lysosomes at 20 uM incubated for 12 hrs by ferroOrange probe based confocal fluorescence microscopic analysis; format: functional, cell-based
HCT-116 [14] = test: Induction of autophagy in human HCT-116 cells transfected with mRFP-GFP-LC3B assessed as formation of autolysosomes by measuring reduction in GFP to mRFP fluorescence ratio at 5 to 20 uM incubated for 12 hrs by Lyso tracker red staining based confocal fluorescence microscopic analysis; format: functional, cell-based; details: dose 5-20 µM
HCT-116 [15] = test: Induction of autophagy in human HCT-116 cells transfected with mRFP-GFP-LC3B assessed as colocalization of lysosome with LC3B protein at 20 uM incubated for 12 hrs by Lyso tracker red staining based confocal fluorescence microscopic analysis; format: functional, cell-based
HCT-116 [16] = test: Induction of autophagy in human HCT-116 cells assessed as increase in intracellular ferrous ion level at 20 uM incubated for 12 hrs by Lyso tracker green staining based confocal microscopic analysis; format: functional, cell-based
HCT-116 [17] = test: Induction of autophagy in human HCT-116 cells assessed as formation of autophagosomes at 20 uM incubated for 12 hrs in presence of Bafilomycin A1 by confocal microscopic analysis; format: functional, cell-based
HCT-116 [18] = test: Induction of ferritin autophagy in human HCT-116 cells assessed as upregulation of FTH1 protein expression at 5 to 20 uM incubated for 12 hrs by Western blotting analysis; format: functional, cell-based; details: dose 5-20 µM
HCT-116 [19] = test: Antitumor activity against human HCT-116 cells xenografted in BALB/c mouse assessed as reduction in tumor growth at 30 mg/kg,ip administrated daily for 14 days; format: functional, organism-based; details: time 14.0 day
HCT-116 [20] = test: Antitumor activity against human HCT-116 cells xenografted in BALB/c mouse assessed as reduction in tumor volume at 30 mg/kg,ip administrated daily for 14 days; format: functional, organism-based; details: time 14.0 day
HCT-116 [21] = test: Antitumor activity against human HCT-116 cells xenografted in BALB/c mouse assessed as reduction in tumor volume at 60 mg/kg,ip administrated daily for 14 days; format: functional, organism-based; details: time 14.0 day
HCT-116 [22] = test: Antitumor activity against human HCT-116 cells xenografted in BALB/c mouse assessed as reduction in tumor weight at 60 mg/kg,ip administrated daily for 14 days; format: functional, organism-based; details: time 14.0 day
[23] = Toxicity in BALB/c mouse xenografted with human HCT-116 cells assessed as change in body weight at 60 mg/kg,ip administrated daily for 14 days; format: organism-based; details: in vivo, 336 h, time 14 day
HCT-116 [24] = test: Antitumor activity against human HCT-116 cells xenografted in BALB/c mouse assessed as reduction in tumor density at 30 mg/kg,ip administrated daily for 14 days by hematoxylin and eosin staining based microscopic analysis; format: functional, organism-based; details: time 14.0 day
HCT-116 [25] = test: Antitumor activity against human HCT-116 cells xenografted in BALB/c mouse assessed as presence of pyknotic nucleus at 60 mg/kg,ip administrated daily for 14 days by hematoxylin and eosin staining based microscopic analysis; format: functional, organism-based; details: time 14.0 day
HCT-116 [26] = test: Antitumor activity against human HCT-116 cells xenografted in BALB/c mouse assessed as tumor cell rupture at 30 mg/kg,ip administrated daily for 14 days by hematoxylin and eosin staining based microscopic analysis; format: functional, organism-based; details: time 14.0 day
HCT-116 [27] = test: Antitumor activity against human HCT-116 cells xenografted in BALB/c mouse assessed as increase in FTH1 expression at 60 mg/kg,ip administrated daily for 14 days by immunohistochemistry; format: functional, organism-based; details: time 14.0 day
HCT-116 [28] = test: Antitumor activity against human HCT-116 cells xenografted in BALB/c mouse assessed as increase in LC3B expression at 60 mg/kg,ip administrated daily for 14 days by immunohistochemistry; format: functional, organism-based; details: time 14.0 day
[29] = Toxicity in BALB/c mouse xenografted with human HCT-116 cells assessed as histopathological changes in heart at 30 mg/kg,ip administrated daily for 14 days by hematoxylin and eosin staining based microscopic analysis; format: organism-based; details: in vivo, 336 h, time 14 day
[30] = Toxicity in BALB/c mouse xenografted with human HCT-116 cells assessed as histopathological changes in heart at 60 mg/kg,ip administrated daily for 14 days by hematoxylin and eosin staining based microscopic analysis; format: organism-based; details: in vivo, 336 h, time 14 day
[31] = Toxicity in BALB/c mouse xenografted with human HCT-116 cells assessed as histopathological changes in spleen at 30 mg/kg,ip administrated daily for 14 days by hematoxylin and eosin staining based microscopic analysis; format: organism-based; details: in vivo, 336 h, time 14 day
[32] = Toxicity in BALB/c mouse xenografted with human HCT-116 cells assessed as histopathological changes in spleen at 60 mg/kg,ip administrated daily for 14 days by hematoxylin and eosin staining based microscopic analysis; format: organism-based; details: in vivo, 336 h, time 14 day
[33] = Toxicity in BALB/c mouse xenografted with human HCT-116 cells assessed as histopathological changes in lung at 60 mg/kg,ip administrated daily for 14 days by hematoxylin and eosin staining based microscopic analysis; format: organism-based; details: in vivo, 336 h, time 14 day

C=C(Cl)C(=O)NCCCCCCCCCCCC(=O)Oc1c(OC)ccc2c1[C@@]13CCN(C)[C@@H](C2)[C@H]1C=C(OC)C(=O)C3
Non-Toxic: Activity [23] | Activity [29] | Activity [30] | Activity [31] | Activity [32] | Activity [33]
15.1 µM: IC50 (HCT-116 [4])
inactive: Activity (HCT-116 [11]) | Activity (HCT-116 [12]) | Activity (HCT-116 [17])
19 µM: IC50 at 48 h [1]
active: Activity (HCT-116 [2]) | Activity (HCT-116 [3]) | Activity (HCT-116 [5]) Dose-Dependent Effect | Activity (HCT-116 [6]) | Activity (HCT-116 [7]) | Activity (HCT-116 [8]) | Activity (HCT-116 [9]) | Activity (HCT-116 [10]) | Activity (HCT-116 [13]) | Activity (HCT-116 [14]) | Activity (HCT-116 [15]) | Activity (HCT-116 [16]) | Activity (HCT-116 [18]) | Activity (HCT-116 [19]) | Activity (HCT-116 [20]) | Activity (HCT-116 [21]) | Activity (HCT-116 [22]) | Activity (HCT-116 [24]) | Activity (HCT-116 [25]) | Activity (HCT-116 [26]) | Activity (HCT-116 [27]) | Activity (HCT-116 [28])
6.71 µM: IC50 (HT-29)
